Data: US20210228736A1, “PATHOGEN CONTROL COMPOSITIONS AND USES THEREOF” (Flagship Pioneering Innovations VI, LLC, priority 2018, published 2021)

Tests used:
Pseudomonas aeruginosa = assay: Treatment with DOX-loaded grapefruit PMPs, kinetic OD 600 nm (P. aeruginosa); format: cell-based
Method: (§1) Bacteria and yeast strains were maintained as indicated by the supplier: E. coli (ATCC, #25922) was grown on Trypticase Soy Agar/broth at 37° C., Pseudomonas aeruginosa (ATCC) was grown on Tryptic soy Agar/broth with […] rifampicin at 37° C., and Saccharomyces cerevisiae (ATCC, #9763) was grown on yeast extract peptone dextrose broth (YPD) and maintained at 30° C. Prior to treatment, fresh one day cultures were grown overnight, the OD (600 nm) was adjusted to 0.1 OD with medium prior to use, and bacteria/yeast were transferred to a 96 well plate for treatment (duplicate samples, 100 μl/well). […] Plates were covered with aluminum foil, and incubated at 37° C. (E. coli, P. aeruginosa), or 30° C. (S. cerevisiae) and agitated at 220 rpm.
(§2) A kinetic Absorbance measurement at 600 nm was performed on a SpectraMax® spectrophotometer to monitor the OD of the cultures at t=0h, t=1h, t=2h, t=3h, t=4.5h, t=16h (E. coli, P. aeruginosa) or t=0.5h, t=1.5h, t=2.5h, t=3.5h, t=4h, t=16h (S. cerevisiae). […] To compare the cytotoxic effect of PMP-DOX treatment on different bacterial and yeast strains, within each treatment group the relative OD was determined as compared to the untreated control (set to 100%).

E. coli = assay: Treatment with DOX-loaded grapefruit PMPs, kinetic OD 600 nm (E. coli); format: cell-based, Escherichia coli
Method: as §1, §2

Saccharomyces cerevisiae = assay: Treatment with DOX-loaded grapefruit PMPs, kinetic OD 600 nm (S. cerevisiae); format: cell-based
Method: as §1, §2

**Q.** With `COc1cccc2c1C(=O)c1c(O)c3c(c(O)c1C2=O)C[C@@](O)(C(=O)CO)C[C@@H]3O[C@H]1C[C@H](N)[C@H](O)[C@H](C)O1` [free doxorubicin, doxorubicin] as the molecule, how does the “onset of cytotoxicity compared with PMP-DOX at the same dosages” value (Pseudomonas aeruginosa) read?
**A.** cytotoxicity is induced earlier than with PMP-DOX delivery

**Q.** And the “onset of cytotoxicity compared with PMP-DOX at the same dosages” value (E. coli)?
**A.** cytotoxicity is induced earlier than with PMP-DOX delivery

**Q.** What about the “onset of cytotoxicity compared with PMP-DOX at the same dosages” value (Saccharomyces cerevisiae) of the same molecule?
**A.** cytotoxicity is induced earlier than with PMP-DOX delivery
